From publication PMC7098970, “Neurosteroids as Selective Inhibitors of Glycine Receptor Activity: Structure-Activity Relationship Study on Endogenous Androstanes and Androstenes” (Frontiers in Molecular Neuroscience, 2020)
“Also recorded” adds a separate entry of the source. Where two headings read alike, the source gives them in different places.

Key:
[1] = tested on: glycine receptor (GlyR); assay: Glycine-induced chloride current (IGly), whole-cell patch-clamp in isolated pyramidal neurons of the rat hippocampus; assay type: cell-based; settings: for τdes/τdes control of IGly: 0.1 μM of steroid; for τdes/τdes control of IGly / Ipeak/Ipeak control of IGly: mean ± SEM, normalized; for Ipeak/Ipeak control of IGly: 10 μM of steroid; for Ipeak max (maximum inhibition attainable) of IGly / Ipeak Hill coefficient of IGly: peak amplitude
Description: (§1) All experiments were conducted per the requirements of the Ministry of Public Health of the Russian Federation and were consistent with the EU directive for Use of Experimental Animals of the European Community. […] The cells were isolated from transverse hippocampal slices as described in detail elsewhere ([Vorobjev, 1991]). Briefly, the slices (200–500 μm) of Wistar rats (11–14 days of age) hippocampus or cerebellum were incubated at room temperature for at least 2 h in a solution containing the following components (in mM): 124 NaCl, 3 KCl, 2 CaCl2, 2 MgSO4, 25 NaHCO3, 1.3 NaH2PO4, 10 D-glucose, pH 7.4. The saline was continuously stirred and bubbled with carbogen (95% 0_2 + 5% CO2). Single pyramidal neurons from the hippocampal CA3 area or Purkinje cells from sagittal slices of the cerebellum were isolated by a vibrating fused glass pipette with a spherical tip.
(§2) Isolated neurons were patch clamped and then lifted into the outflow of the control bath solution. […] The substances were applied through glass capillary, 0.1 mm in diameter, which could be rapidly displaced laterally ([Vorobjev et al., 1996]). A fast perfusion technique allows a complete exchange of external solution surrounding a neuron within 20 ms. […] Transmembrane currents were recorded using a conventional patch-clamp technique in the whole-cell configuration. […] The solution in the recording pipette contained the following (in mM): 40 CsF, 100 CsCl, 0.5 CaCl2, 5 EGTA, 3 MgCl2, 4 NaATP, 5 HEPES, pH 7.3. The composition of the extracellular solution was as follows (in mM): 140 NaCl, 3 KCl, 3 CaCl2, 3 MgCl2, 10 D-glucose, 10 HEPES hemisodium, and pH 7.4. Recording of the currents was performed using EPC7 patch-clamp amplifier (HEKA Electronik, Germany). The holding potential was maintained at −70 mV. Transmembrane currents were filtered at 3 kHz, stored and analyzed with IBM-PC computer, using homemade software.
(§3) Statistical analysis was performed with the help of Prism Graphpad software. All comparisons were made with ANOVA-test using Dunnett’s multiple comparison test and Student’s unpaired t-test at a significance level of p = 0.05. N = 5–8 cells from 3 to 4 animals for every concentration. […] The meanings of asterisks (probability levels) in figures is the following: ^∗P < 0.05, ^∗∗P < 0.01. The IC50 values for steroids inhibition of the IGly and IGABA were determined using the equation: Y = 1 – [max/(1 + (IC50/C)^n)], where max is the maximum inhibition attainable, C is the concentration of steroid, IC50 is the half-maximal inhibitory concentration and n is the slope factor (Hill coefficient).
(§4) First, the ability of steroids to affect the holding current at voltage-clamp regime was tested. […] The experiments with IGly were conducted on rat hippocampal neurons, and experiments with IGABA were conducted on rat cerebellar Purkinje cells.

[2] = biological target: T1, GABAA receptors (Rattus norvegicus, UniProt P18508+P62813+P63138); assay type: cell-based
T1 construct: Single pyramidal neurons from the hippocampal CA3 area or Purkinje cells from sagittal slices of the cerebellum were isolated; endogenous in cells; host or cells: acutely isolated Purkinje cells from cerebellar slices of Wistar rats, 11-14 days old
Description: as §1, §2, §3, §4

[3] = Hill fit, time constant of desensitization, 100 μM glycine
[4] = read-out: Ipeak IC50 of IGly, inhibition of peak amplitude, 100 μM glycine
[5] = read-out: τdes IC50 of IGly, acceleration of desensitization (decrease in τdes), 100 μM glycine
[6] = time constant of desensitization, 100 μM glycine
[7] = footnote b: did not modulate IGABA up to the concentration of 10 μM, 5 μM GABA

T1 sequence (P62813 28-455): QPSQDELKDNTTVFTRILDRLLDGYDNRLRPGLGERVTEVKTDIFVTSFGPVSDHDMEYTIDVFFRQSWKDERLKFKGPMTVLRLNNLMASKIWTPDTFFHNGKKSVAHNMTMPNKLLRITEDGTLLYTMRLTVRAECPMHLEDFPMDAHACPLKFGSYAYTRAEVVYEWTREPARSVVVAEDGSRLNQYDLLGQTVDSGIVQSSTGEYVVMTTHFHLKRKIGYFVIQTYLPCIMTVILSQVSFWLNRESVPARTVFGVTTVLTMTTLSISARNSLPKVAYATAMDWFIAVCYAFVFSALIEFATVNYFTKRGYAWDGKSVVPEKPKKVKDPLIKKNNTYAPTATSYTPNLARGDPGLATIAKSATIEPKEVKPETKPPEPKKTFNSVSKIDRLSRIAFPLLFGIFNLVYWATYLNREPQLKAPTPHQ
T1 sequence (P63138 25-474 limits assumed): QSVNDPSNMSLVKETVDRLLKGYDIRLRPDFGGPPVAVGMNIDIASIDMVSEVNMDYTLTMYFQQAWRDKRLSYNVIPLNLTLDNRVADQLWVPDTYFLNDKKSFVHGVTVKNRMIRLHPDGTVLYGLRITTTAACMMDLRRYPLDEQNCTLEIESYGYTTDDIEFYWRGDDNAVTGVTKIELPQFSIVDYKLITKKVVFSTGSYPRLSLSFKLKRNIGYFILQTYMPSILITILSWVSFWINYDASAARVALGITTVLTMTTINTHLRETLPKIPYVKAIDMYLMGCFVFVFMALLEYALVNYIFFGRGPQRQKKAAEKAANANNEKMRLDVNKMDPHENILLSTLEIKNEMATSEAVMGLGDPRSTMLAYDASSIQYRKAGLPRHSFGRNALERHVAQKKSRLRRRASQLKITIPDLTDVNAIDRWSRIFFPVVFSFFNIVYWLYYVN
T1 sequence (P18508 39-466): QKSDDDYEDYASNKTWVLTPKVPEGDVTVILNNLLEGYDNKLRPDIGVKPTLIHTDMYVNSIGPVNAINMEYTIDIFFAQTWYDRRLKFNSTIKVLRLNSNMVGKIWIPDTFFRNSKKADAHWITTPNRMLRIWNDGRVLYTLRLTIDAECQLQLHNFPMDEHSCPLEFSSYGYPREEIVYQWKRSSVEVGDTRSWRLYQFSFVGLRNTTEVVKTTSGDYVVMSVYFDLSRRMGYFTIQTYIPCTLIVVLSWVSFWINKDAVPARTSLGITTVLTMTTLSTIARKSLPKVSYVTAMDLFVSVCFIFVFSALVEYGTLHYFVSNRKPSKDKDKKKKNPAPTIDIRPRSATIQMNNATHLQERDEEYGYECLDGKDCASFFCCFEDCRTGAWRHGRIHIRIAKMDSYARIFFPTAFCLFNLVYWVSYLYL

SMILES	τdes/τdes control of IGly ([1]; 100 μM glycine)	τdes IGly (effect on time constant of desensitization) ([1]; 10 μM compound, 100 μM glycine)	Ipeak/Ipeak control of IGly ([1]; 100 μM glycine)	Ipeak max (maximum inhibition attainable) of IGly ([1]; Hill fit, 100 μM glycine)	τdes max (maximum inhibition attainable) of IGly [1, 3]	Ipeak Hill coefficient of IGly ([1]; 100 μM glycine)	IC50 [1, 4]	IC50 [1, 5]	τdes Hill coefficient of IGly [1, 6]	τdes/τdes control of IGABA ([2]; 10 μM of steroid, 5 μM GABA)	Ipeak/Ipeak control of IGABA ([2]; 50 μM of steroid, 5 μM GABA)	Ipeak/Ipeak control of IGABA [2]	τdes IGABA (effect in words) [2]	τdes/τdes control of IGABA [2]	other results
C[C@]12CC[C@H]3[C@@H](CCC4=CC(=O)CC[C@@]43C)[C@@H]1CC[C@@H]2O [Compound 1, 17β-Hydroxyandrost-4-en-3-one]	0.68 ± 0.05	−67%	0.75 ± 0.03	0.58 ± 0.10	0.72 ± 0.08	1.1 ± 0.32	19.3 ± 2.3 µM	0.13 ± 0.06 µM	0.58 ± 0.20	0.99 ± 0.02	0.86 ± 0.03	–	–	–	Effect on IGly in words ([1]; 0.1 and 1 μM compound): accelerated desensitization without effect on the peak amplitude; Effect on IGly in words ([1]; 10 and 100 μM compound): acceleration of desensitization and a decrease in peak amplitude; Acceleration of decay (desensitization) of IGABA ([2]; 50 μM compound, 5 μM GABA): 23–45%; Decrease in the peak amplitude of IGABA ([2]; 50 μM compound, 5 μM GABA): 14–25%; τdes IGABA (effect in words) [2, 7]: ^bNo effect
C[C@]12CCC(=O)C=C1CC[C@@H]1[C@@H]2CC[C@]2(C)C(=O)CC[C@@H]12 [Compound 2, Androst-4-en-3,17-dione]	0.73 ± 0.06	−84%	0.82 ± 0.02	0.55 ± 0.09	0.97 ± 0.10	1.1 ± 0.36	18.1 ± 2.9 µM	0.49 ± 0.16 µM	0.60 ± 0.11	0.98 ± 0.02	0.77 ± 0.02	–	–	–	Acceleration of decay (desensitization) of IGABA ([2]; 50 μM compound, 5 μM GABA): 23–45%; Decrease in the peak amplitude of IGABA ([2]; 50 μM compound, 5 μM GABA): 14–25%; τdes IGABA (effect in words) [2, 7]: ^bNo effect
C[C@]12CCC(=O)C[C@@H]1CC[C@@H]1[C@@H]2CC[C@]2(C)[C@@H](O)CC[C@@H]12 [Compound 3, 17β-Hydroxy-5α-androstan-3-one]	0.72 ± 0.06	–	0.78 ± 0.03	0.61 ± 0.08	–	0.86 ± 0.15	20.1 ± 2.8 µM	–	–	–	–	0.95 ± 0.03	^cNo effect	0.98 ± 0.02	τdes Hill coefficient of IGly [1]: 0.58 ± 0.13; τdes IGly (effect on time constant of desensitization) [1]: −82%; τdes max (maximum inhibition attainable) of IGly [1]: 0.97 ± 0.11; IC50 ([1]; read-out: τdes IC50 of IGly): 0.42 ± 0.14 µM; Modulation of IGABA (peak amplitude or rate of decay/desensitization) [2]: did not modulate; also recorded: remained inactive; also recorded: did not change
C[C@]12CC[C@H](O)C[C@@H]1CC[C@@H]1[C@@H]2CC[C@]2(C)C(=O)CC[C@@H]12 [Compound 4, 3β-Hydroxy-5α-androstan-17-one]	0.66 ± 0.05	–	0.75 ± 0.03	0.64 ± 0.08	–	0.97 ± 0.21	17.1 ± 2.3 µM	–	–	–	–	0.75 ± 0.03	–	0.80 ± 0.03	τdes Hill coefficient of IGly [1]: 0.59 ± 0.16; τdes IGly (effect on time constant of desensitization) [1]: −64%; τdes max (maximum inhibition attainable) of IGly [1]: 0.70 ± 0.07; IC50 ([1]; read-out: τdes IC50 of IGly): 0.12 ± 0.05 µM; Acceleration of decay (desensitization) of IGABA [2]: 23–45%; Decrease in the peak amplitude of IGABA [2]: 14–25%; τdes IGABA (effect on time constant of desensitization) [2]: −20%
C[C@]12CC[C@H]3[C@@H](CCC4=CC(=O)CC[C@@]43C)[C@@H]1CC[C@H]2O [Compound 5, 17α-Hydroxyandrost-4-en-3-one]	0.66 ± 0.04	−72%	0.80 ± 0.04	0.46 ± 0.09	0.81 ± 0.11	1.2 ± 0.34	17 ± 2.9 µM	0.22 ± 0.08 µM	0.51 ± 0.15	0.97 ± 0.03	1.12 ± 0.08	–	–	–	τdes IGABA (effect in words) ([2]; footnote c: did not modulate IGABA up to the concentration of 50 μM, 5 μM GABA): ^cNo effect; Modulation of IGABA (peak amplitude or rate of decay/desensitization) ([2]; up to 50 μM compound, 5 μM GABA): did not modulate; also recorded: remained inactive; also recorded: did not change
C[C@]12CCC(=O)C[C@@H]1CC[C@@H]1[C@@H]2CC[C@]2(C)C(=O)CC[C@@H]12 [Compound 6, 5α-Androstane-3,17-dione]	0.65 ± 0.03	−72%	0.76 ± 0.03	0.51 ± 0.05	0.86 ± 0.10	1.2 ± 0.35	16.3 ± 2.4 µM	0.26 ± 0.09 µM	0.48 ± 0.10	–	–	0.92 ± 0.04	^cNo effect	0.99 ± 0.02	Modulation of IGABA (peak amplitude or rate of decay/desensitization) [2]: did not modulate; also recorded: remained inactive; also recorded: did not change
C[C@]12CC[C@H]3[C@@H](CC=C4C[C@@H](O)CC[C@@]43C)[C@@H]1CC[C@@H]2O [Compound 7, 3β,17β-Androst-5-ene-3,17-diol]	0.72 ± 0.03	–	0.75 ± 0.02	0.52 ± 0.09	–	0.71 ± 0.16	16.2 ± 2.3 µM	–	–	–	–	0.77 ± 0.06	^bNo effect	0.98 ± 0.02	τdes Hill coefficient of IGly [1]: 0.56 ± 0.13; τdes IGly (effect on time constant of desensitization) [1]: −70%; τdes max (maximum inhibition attainable) of IGly [1]: 0.81 ± 0.09; IC50 ([1]; read-out: τdes IC50 of IGly): 0.29 ± 0.12 µM; Acceleration of decay (desensitization) of IGABA [2]: 23–45%; Decrease in the peak amplitude of IGABA [2]: 14–25%
C[C@]12CC[C@H](O)CC1=CC[C@@H]1[C@@H]2CC[C@]2(C)C(=O)CC[C@@H]12 [Compound 8, 3β-Hydroxy-androst-5-en-17-one]	0.67 ± 0.05	−79%	0.70 ± 0.01	0.73 ± 0.08	0.88 ± 0.09	0.92 ± 0.14	21.3 ± 2.2 µM	0.24 ± 0.09 µM	0.57 ± 0.14	0.88 ± 0.05	0.75 ± 0.04	–	–	–	τdes IGABA (effect on time constant of desensitization) ([2]; 10 μM compound, 5 μM GABA): −12%; Acceleration of decay (desensitization) of IGABA ([2]; 50 μM compound, 5 μM GABA): 23–45%; Decrease in the peak amplitude of IGABA ([2]; 50 μM compound, 5 μM GABA): 14–25%
C[C@]12CCC(=O)C[C@H]1CC[C@@H]1[C@@H]2CC[C@]2(C)C(=O)CC[C@@H]12 [Compound 9, 5β-Androstane-3,17-dione]	0.72 ± 0.07	−68%	0.77 ± 0.03	0.68 ± 0.09	0.79 ± 0.11	1.0 ± 0.19	22 ± 2.8 µM	0.4 ± 0.12 µM	0.56 ± 0.14	–	–	0.99 ± 0.01	^cNo effect	0.97 ± 0.03	Modulation of IGABA (peak amplitude or rate of decay/desensitization) [2]: did not modulate; also recorded: remained inactive; also recorded: did not change
CN1CCc2cc3c(cc2[C@H]1[C@@H]1OC(=O)c2c1ccc1c2OCO1)OCO3 [bicuculline, reference compound]	–	–	–	–	–	–	–	–	–	–	–	–	–	–	Block of IGABA [2]: reversibly blocked
